# Target: T1, human PAH with the R408W mutation (Homo sapiens, UniProt P00439, R408W)
# T1 construct: expressed in transfected cells
# T1 sequence (P00439 1-452 R408W): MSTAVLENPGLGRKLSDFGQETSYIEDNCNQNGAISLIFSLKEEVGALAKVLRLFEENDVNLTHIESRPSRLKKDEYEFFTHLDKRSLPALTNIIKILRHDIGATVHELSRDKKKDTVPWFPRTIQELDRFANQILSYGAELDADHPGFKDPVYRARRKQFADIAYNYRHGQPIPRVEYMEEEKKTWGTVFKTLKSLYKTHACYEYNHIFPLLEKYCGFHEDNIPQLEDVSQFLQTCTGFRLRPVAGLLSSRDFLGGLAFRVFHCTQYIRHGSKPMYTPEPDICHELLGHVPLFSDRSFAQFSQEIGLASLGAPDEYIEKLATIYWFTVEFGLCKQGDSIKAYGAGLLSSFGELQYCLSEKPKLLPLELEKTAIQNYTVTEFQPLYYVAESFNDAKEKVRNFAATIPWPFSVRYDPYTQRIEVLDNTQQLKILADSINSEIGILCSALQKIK
# Assay: Cell Based Phenylalanine Flux Assay;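 note: after compound treatment, cells received sepiapterin plus isotope-labelled Phenylalanine for 4 hours, then labelled Tyrosine in the medium was quantified, 10-point 2-fold dilution series run in duplicate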
# Details: A375 cells expressing human PAH R408W; 24 hrs compound incubation; 13C-Tyrosine by LC-MS; average where tested multiple times; read-out: AC50
row,Structure (SMILES),AC50
1,"CC(C)c1cccn2nc([C@@H]3c4nc[nH]c4CCN3C(=O)c3nnc(-c4cnccn4)o3)cc12 [Example 1934, (S)-(4-(4-isopropylpyrazolo[1,5-a]pyridin-2-yl)-1,4,6,7-tetrahydro-5H-imidazo[4,5-c]pyridin-5-yl)(5-(pyrazin-2-yl)-1,3,4-oxadiazol-2-yl)methanone]",< 0.5 µM
2,"CC(C)c1cccn2nc([C@H]3c4nc[nH]c4CCN3C(=O)c3nnc(-c4cnn(C(F)F)c4)o3)cc12 [Example 1937, (R)-(5-(1-(difluoromethyl)-1H-pyrazol-4-yl)-1,3,4-oxadiazol-2-yl)(4-(4-isopropylpyrazolo[1,5-a]pyridin-2-yl)-1,4,6,7-tetrahydro-5H-imidazo[4,5-c]pyridin-5-yl)methanone]",1 to 5 µM
3,"Cc1cccn2nc([C@H]3c4nc[nH]c4CCN3c3ccc(C(F)(F)F)cn3)cc12 [Example 1940, (R)-4-(4-methylpyrazolo[1,5-a]pyridin-2-yl)-5-(5-(trifluoromethyl)pyridin-2-yl)-4,5,6,7-tetrahydro-1H-imidazo[4,5-c]pyridine]",> 5 µM
4,"Cc1cccn2nc([C@@H]3c4nc[nH]c4CCN3c3ccc(C(F)(F)F)cn3)cc12 [Example 1941, (S)-4-(4-methylpyrazolo[1,5-a]pyridin-2-yl)-5-(5-(trifluoromethyl)pyridin-2-yl)-4,5,6,7-tetrahydro-1H-imidazo[4,5-c]pyridine]",< 0.5 µM
5,"Fc1cccn2nc([C@@H]3c4nc[nH]c4CCN3c3ccc(C(F)(F)F)cn3)cc12 [Example 1943, (S)-4-(4-fluoropyrazolo[1,5-a]pyridin-2-yl)-5-(5-(trifluoromethyl)pyridin-2-yl)-4,5,6,7-tetrahydro-1H-imidazo[4,5-c]pyridine]",< 0.5 µM
6,"Cc1cccn2nc([C@@H]3c4nc[nH]c4CCN3C(=O)c3ocnc3C3CC3)cc12 [Example 1944, (S)-(4-cyclopropyloxazol-5-yl)(4-(4-methylpyrazolo[1,5-a]pyridin-2-yl)-1,4,6,7-tetrahydro-5H-imidazo[4,5-c]pyridin-5-yl)methanone]",< 0.5 µM
7,"Cc1cccn2nc([C@H]3c4nc[nH]c4CCN3C(=O)c3ocnc3C3CC3)cc12 [Example 1945, (R)-(4-cyclopropyloxazol-5-yl)(4-(4-methylpyrazolo[1,5-a]pyridin-2-yl)-1,4,6,7-tetrahydro-5H-imidazo[4,5-c]pyridin-5-yl)methanone]",1 to 5 µM
8,"CC(C)c1cccn2nc([C@@H]3c4nc[nH]c4CCN3C(=O)c3nnc(-c4cnn(C(F)(F)F)c4)o3)cc12 [Example 1946, (S)-(4-(4-isopropylpyrazolo[1,5-a]pyridin-2-yl)-1,4,6,7-tetrahydro-5H-imidazo[4,5-c]pyridin-5-yl)(5-(1-(trifluoromethyl)-1H-pyrazol-4-yl)-1,3,4-oxadiazol-2-yl)methanone]",< 0.5 µM
9,"CC(C)c1cccn2nc([C@H]3c4nc[nH]c4CCN3C(=O)c3nnc(-c4ccn(C)n4)o3)cc12 [Example 1950, (R)-(4-(4-isopropylpyrazolo[1,5-a]pyridin-2-yl)-1,4,6,7-tetrahydro-5H-imidazo[4,5-c]pyridin-5-yl)(5-(1-methyl-1H-pyrazol-3-yl)-1,3,4-oxadiazol-2-yl)methanone]",> 5 µM
10,"CC(C)c1cccn2nc([C@@H]3c4nc[nH]c4CCN3C(=O)c3nnc(-c4ccn(C)n4)o3)cc12 [Example 1951, (S)-(4-(4-isopropylpyrazolo[1,5-a]pyridin-2-yl)-1,4,6,7-tetrahydro-5H-imidazo[4,5-c]pyridin-5-yl)(5-(1-methyl-1H-pyrazol-3-yl)-1,3,4-oxadiazol-2-yl)methanone]",< 0.5 µM
11,"Fc1cccc(N2CCc3[nH]cnc3[C@@H]2c2cc3c(F)cccn3n2)n1 [Example 1954, (R)-4-(4-fluoropyrazolo[1,5-a]pyridin-2-yl)-5-(6-fluoropyridin-2-yl)-4,5,6,7-tetrahydro-1H-imidazo[4,5-c]pyridine]",1 to 5 µM
12,"Fc1cccc(N2CCc3[nH]cnc3[C@H]2c2cc3c(F)cccn3n2)n1 [Example 1955, (S)-4-(4-fluoropyrazolo[1,5-a]pyridin-2-yl)-5-(6-fluoropyridin-2-yl)-4,5,6,7-tetrahydro-1H-imidazo[4,5-c]pyridine]",< 0.5 µM

# Other lines, results leading:
row,AC50,Structure (SMILES)
1,0.5 to 1 µM,"CC(C)(F)c1ncc(C(=O)N2CCc3[nH]cnc3[C@H]2c2cc3ccccn3n2)o1 [Example 1957, (S)-(2-(2-fluoropropan-2-yl)oxazol-5-yl)(4-(pyrazolo[1,5-a]pyridin-2-yl)-1,4,6,7-tetrahydro-5H-imidazo[4,5-c]pyridin-5-yl)methanone]"
2,0.5 to 1 µM,"Cc1cccn2nc([C@@H]3c4nc[nH]c4CCN3C(=O)c3cnc(-c4cnn(C)c4)o3)cc12 [Example 1960, (S)-(2-(1-methyl-1H-pyrazol-4-yl)oxazol-5-yl)(4-(4-methylpyrazolo[1,5-a]pyridin-2-yl)-1,4,6,7-tetrahydro-5H-imidazo[4,5-c]pyridin-5-yl)methanone]"
3,> 5 µM,"Cc1cccn2nc([C@H]3c4nc[nH]c4CCN3C(=O)c3cnc(-c4cnn(C)c4)o3)cc12 [Example 1961, (R)-(2-(1-methyl-1H-pyrazol-4-yl)oxazol-5-yl)(4-(4-methylpyrazolo[1,5-a]pyridin-2-yl)-1,4,6,7-tetrahydro-5H-imidazo[4,5-c]pyridin-5-yl)methanone]"
4,0.5 to 1 µM,"Cc1cccn2nc([C@@H]3c4nc[nH]c4CCN3C(=O)c3cnc(-c4cnn(C)c4C)o3)cc12 [Example 1962, (S)-(2-(1,5-dimethyl-1H-pyrazol-4-yl)oxazol-5-yl)(4-(4-methylpyrazolo[1,5-a]pyridin-2-yl)-1,4,6,7-tetrahydro-5H-imidazo[4,5-c]pyridin-5-yl)methanone]"
5,0.5 to 1 µM,"Cc1cccn2nc([C@@H]3c4nc[nH]c4CCN3C(=O)c3cnc(-c4ccccn4)o3)cc12 [Example 1964, (S)-(4-(4-methylpyrazolo[1,5-a]pyridin-2-yl)-1,4,6,7-tetrahydro-5H-imidazo[4,5-c]pyridin-5-yl)(2-(pyridin-2-yl)oxazol-5-yl)methanone]"
6,> 5 µM,"Cc1cccn2nc([C@H]3c4nc[nH]c4CCN3C(=O)c3cnc(-c4ccccn4)o3)cc12 [Example 1965, (R)-(4-(4-methylpyrazolo[1,5-a]pyridin-2-yl)-1,4,6,7-tetrahydro-5H-imidazo[4,5-c]pyridin-5-yl)(2-(pyridin-2-yl)oxazol-5-yl)methanone]"
7,< 0.5 µM,"O=C(c1nnc(-c2ccccn2)s1)N1CCc2[nH]cnc2[C@H]1c1cc2ccccn2n1 [Example 1966, (S)-(4-(pyrazolo[1,5-a]pyridin-2-yl)-1,4,6,7-tetrahydro-5H-imidazo[4,5-c]pyridin-5-yl)(5-(pyridin-2-yl)-1,3,4-thiadiazol-2-yl)methanone]"
8,> 5 µM,"O=C(c1nnc(-c2ccccn2)s1)N1CCc2[nH]cnc2[C@@H]1c1cc2ccccn2n1 [Example 1967, (R)-(4-(pyrazolo[1,5-a]pyridin-2-yl)-1,4,6,7-tetrahydro-5H-imidazo[4,5-c]pyridin-5-yl)(5-(pyridin-2-yl)-1,3,4-thiadiazol-2-yl)methanone]"
9,0.5 to 1 µM,"Cc1cccn2nc([C@@H]3c4nc[nH]c4CCN3C(=O)c3nnc(-c4cncnc4)o3)cc12 [Example 1972, (S)-(4-(4-methylpyrazolo[1,5-a]pyridin-2-yl)-1,4,6,7-tetrahydro-5H-imidazo[4,5-c]pyridin-5-yl)(5-(pyrimidin-5-yl)-1,3,4-oxadiazol-2-yl)methanone]"
10,> 5 µM,"Cc1cccn2nc([C@H]3c4nc[nH]c4CCN3C(=O)c3nnc(-c4cncnc4)o3)cc12 [Example 1973, (R)-(4-(4-methylpyrazolo[1,5-a]pyridin-2-yl)-1,4,6,7-tetrahydro-5H-imidazo[4,5-c]pyridin-5-yl)(5-(pyrimidin-5-yl)-1,3,4-oxadiazol-2-yl)methanone]"
11,0.5 to 1 µM,"O=C(c1nnc(-c2cncnc2)o1)N1CCc2[nH]cnc2[C@H]1c1cc2c(F)cccn2n1 [Example 1974, (S)-(4-(4-fluoropyrazolo[1,5-a]pyridin-2-yl)-1,4,6,7-tetrahydro-5H-imidazo[4,5-c]pyridin-5-yl)(5-(pyrimidin-5-yl)-1,3,4-oxadiazol-2-yl)methanone]"
12,> 5 µM,"O=C(c1nnc(-c2cncnc2)o1)N1CCc2[nH]cnc2[C@@H]1c1cc2c(F)cccn2n1 [Example 1975, (R)-(4-(4-fluoropyrazolo[1,5-a]pyridin-2-yl)-1,4,6,7-tetrahydro-5H-imidazo[4,5-c]pyridin-5-yl)(5-(pyrimidin-5-yl)-1,3,4-oxadiazol-2-yl)methanone]"
13,> 5 µM,"Fc1cccn2nc([C@H]3c4nc[nH]c4CCN3c3ccccn3)cc12 [Example 1976, (R)-4-(4-fluoropyrazolo[1,5-a]pyridin-2-yl)-5-(pyridin-2-yl)-4,5,6,7-tetrahydro-1H-imidazo[4,5-c]pyridine]"
14,0.5 to 1 µM,"Fc1cccn2nc([C@@H]3c4nc[nH]c4CCN3c3ccccn3)cc12 [Example 1977, (S)-4-(4-fluoropyrazolo[1,5-a]pyridin-2-yl)-5-(pyridin-2-yl)-4,5,6,7-tetrahydro-1H-imidazo[4,5-c]pyridine]"
15,> 5 µM,"FC(F)c1cccn2nc([C@H]3c4nc[nH]c4CCN3c3ccccn3)cc12 [Example 1978, (R)-4-(4-(difluoromethyl)pyrazolo[1,5-a]pyridin-2-yl)-5-(pyridin-2-yl)-4,5,6,7-tetrahydro-1H-imidazo[4,5-c]pyridine]"
16,< 0.5 µM,"FC(F)c1cccn2nc([C@@H]3c4nc[nH]c4CCN3c3ccccn3)cc12 [Example 1979, (S)-4-(4-(difluoromethyl)pyrazolo[1,5-a]pyridin-2-yl)-5-(pyridin-2-yl)-4,5,6,7-tetrahydro-1H-imidazo[4,5-c]pyridine]"

# From patent publication US20230365592A1 (Agios Pharmaceuticals, Inc., priority 2022, published 2023)
